Data from patent US7582645B2, “Pyrimidine derivatives for treatment of hyperproliferative disorders” (Bayer Pharmaceuticals Corporation, priority 2003, dated 2009).

Test system: HCT116 cells
Assay: HCT116 cytotoxic activity assay (Alamar Blue, 72 h)
Assay type: cell-based
Details: Homo sapiens, HCT-116, 72 h compound exposure, greater than 500 nM but less than or equal to 2 μM
Method: Representative compounds of this invention were tested for cytotoxicity using the above-described assay procedure with the following results: […]

Row | Structure (SMILES) | IC50
1 | COc1ccc(OC)c(-c2cc(Nc3cccc(Oc4ccnc(C(N)=O)c4)c3)nc(N)n2)c1 [Example 300, 4-(3-{[2-amino-6-(2,5-dimethoxyphenyl)pyrimidin-4-yl]amino}phenoxy)pyridine-2-carboxamide] | 0.5 to 2 µM
2 | Cc1cc(Oc2ccc(Nc3cc(-c4ccc(Oc5ccccc5)cc4)nc(N)n3)cc2)ccn1 [Example 304, N4*-{4-[(2-methylpyridin-4-yl)oxy]phenyl}-6-(4-phenoxyphenyl) pyrimidine-2,4-diamine] | 0.5 to 2 µM
3 | Cc1cc(Oc2ccc(Nc3cc(-c4cccc(O)c4)nc(N)n3)cc2)ccn1 [Example 306, 3-[2-amino-6-({4-[(2-methylpyridin-4-yl)oxy]phenyl}amino)pyrimidin-4-yl]phenol] | 0.5 to 2 µM
4 | CC(=O)Nc1ccc(-c2cc(Nc3ccc(Oc4ccnc(C)c4)cc3)nc(N)n2)cc1 [Example 308, N-{4-[2-amino-6-({4-[(2-methylpyridin-4-yl)oxy]phenyl}amino)pyrimidin-4-yl]phenyl} acetamide] | 0.5 to 2 µM
5 | Cc1cc(Oc2ccc(Nc3cc(-c4ccccc4OC(F)(F)F)nc(N)n3)cc2)ccn1 [Example 309, N4-{4-[(2-methylpyridin-4-yl)oxy]phenyl}-6-[2-(trifluoromethoxy)phenyl]pyrimidine-2,4-diamine] | 0.5 to 2 µM
6 | COc1ccc(-c2cc(Nc3ccc(Oc4ccnc(C)c4)cc3)nc(N)n2)cc1OC [Example 319, 6-(3,4-dimethoxyphenyl)-N4*-{4-[(2-methylpyridin-4-yl)oxy]phenyl} pyrimidine-2,4-diamine] | 0.5 to 2 µM
7 | Cc1cc(Oc2ccc(Nc3cc(-c4ccccc4N)nc(N)n3)cc2)ccn1 [Example 322, 6-(2-aminophenyl)-N4*-{4-[(2-methylpyridin-4-yl)oxy]phenyl} pyrimidine-2,4-diamine] | 0.5 to 2 µM
8 | Cc1cc(Oc2ccc(Nc3cc(-c4cccc(OC(C)C)c4)nc(N)n3)cc2)ccn1 [Example 324, 6-(3-isopropoxyphenyl)-N4*-{4-[(2-methylpyridin-4-yl)oxy]phenyl} pyrimidine-2,4-diamine] | 0.5 to 2 µM
9 | Cc1cc(Oc2ccc(Nc3cc(-c4cccc(OC(F)(F)F)c4)nc(N)n3)cc2)ccn1 [Example 325, N4*-{4-[(2-methylpyridin-4-yl)oxy]phenyl}-6-[3-(trifluoromethoxy)phenyl]pyrimidine-2,4-diamine] | 0.5 to 2 µM

Same assay, conditions: Homo sapiens, HCT-116, 72 h compound exposure, greater than 2 μM

Row | Structure (SMILES) | IC50
10 | CC(C)c1cccc(-c2cc(Nc3cccc(Oc4ccnc(C(N)=O)c4)c3)nc(N)n2)c1 [Example 299, 4-(3-{[2-amino-6-(3-isopropylphenyl)pyrimidin-4-yl]amino}phenoxy) pyridine-2-carboxamide] | > 2 µM
11 | NC(=O)c1cc(Oc2cccc(Nc3cc(-c4ccc[nH]4)nc(N)n3)c2)ccn1 [Example 301, 4-(3-{[2-amino-6-(1H-pyrrol-2-yl)pyrimidin-4-yl]amino}phenoxy) pyridine-2-carboxamide] | > 2 µM
12 | NC(=O)c1cc(Oc2cccc(Nc3cc(-c4ccc(Cl)c(Cl)c4)nc(N)n3)c2)ccn1 [Example 303, 4-(3-{[2-amino-6-(3,4-dichlorophenyl)pyrimidin-4-yl]amino}phenoxy)pyridine-2-carboxamide] | > 2 µM
13 | Cc1cc(Oc2ccc(Nc3cc(-c4ccc(OC(F)(F)F)cc4)nc(N)n3)cc2)ccn1 [Example 307, N4*-{4-[(2-methylpyridin-4-yl)oxy]phenyl}-6-[4-(trifluoromethoxy)phenyl]pyrimidine-2,4-diamine] | > 2 µM
14 | Cc1cc(Oc2ccc(Nc3cc(-c4cccc(C(F)(F)F)c4)nc(N)n3)cc2)ccn1 [Example 314, N4*-{4-[(2-methylpyridin-4-yl)oxy]phenyl}-6-[3-(trifluoromethyl)phenyl] pyrimidine-2,4-diamine] | > 2 µM

Same assay, conditions: Homo sapiens, HCT-116, 72 h compound exposure, less than or equal to 500 nM

Row | Structure (SMILES) | IC50
15 | NC(=O)c1cc(Oc2cccc(Nc3cc(-c4ccsc4)nc(N)n3)c2)ccn1 [Example 298, 4-(3-{[2-amino-6-(3-thienyl)pyrimidin-4-yl]amino}phenoxy) pyridine-2-carboxamide] | ≤ 0.5 µM
16 | Cc1ccc(-c2cc(Nc3cccc(Oc4ccnc(C(N)=O)c4)c3)nc(N)n2)cc1N [Example 302, 4-(3-{[2-amino-6-(3-amino-4-methylphenyl)pyrimidin-4-yl]amino}phenoxy)pyridine-2-carboxamide] | ≤ 0.5 µM
17 | Cc1cc(Oc2ccc(Nc3cc(-c4cccc(N(C)C)c4)nc(N)n3)cc2)ccn1 [Example 305, 6-[3-(dimethylamino)phenyl]-N4*- {4-[(2-methylpyridin-4-yl)oxy]phenyl}pyrimidine-2,4-diamine] | ≤ 0.5 µM
18 | Cc1cc(Oc2ccc(Nc3cc(-c4ccc(O)cc4)nc(N)n3)cc2)ccn1 [Example 310, 4-[2-amino-6-({4-[(2-methylpyridin-4-yl)oxy]phenyl}amino)pyrimidin-4-yl]phenol] | ≤ 0.5 µM
19 | COc1ccc(-c2cc(Nc3ccc(Oc4ccnc(C)c4)cc3)nc(N)n2)cn1 [Example 312, 6-(6-methoxypyridin-3-yl)-N4*-{4-[(2-methylpyridin-4-yl)oxy]phenyl} pyrimidine-2,4-diamine] | ≤ 0.5 µM
20 | Cc1cc(Oc2ccc(Nc3cc(-c4ccc(N)cc4)nc(N)n3)cc2)ccn1 [Example 313, 6-(4-aminophenyl)-N4*-{4-[(2-methylpyridin-4-yl)oxy]phenyl} pyrimidine-2,4-diamine] | ≤ 0.5 µM
21 | Cc1cc(Oc2ccc(Nc3cc(-c4cccc(F)c4)nc(N)n3)cc2)ccn1 [Example 315, 6-(3-fluorophenyl)-N4*-{4-[(2-methylpyridin-4-yl)oxy]phenyl} pyrimidine-2,4-diamine] | ≤ 0.5 µM
22 | COc1cccc(-c2cc(Nc3ccc(Oc4ccnc(C)c4)cc3)nc(N)n2)c1 [Example 316, 6-(3-methoxyphenyl)-N4*-{4-[(2-methylpyridin-4-yl)oxy]phenyl} pyrimidine-2,4-diamine] | ≤ 0.5 µM
23 | CCc1ccc(-c2cc(Nc3ccc(Oc4ccnc(C)c4)cc3)nc(N)n2)cc1 [Example 317, 6-(4-ethylphenyl)-N4*-{4-[(2-methylpyridin-4-yl)oxy]phenyl} pyrimidine-2,4-diamine] | ≤ 0.5 µM
24 | Cc1cc(Oc2ccc(Nc3cc(-c4ccc(N(C)C)cc4)nc(N)n3)cc2)ccn1 [Example 318, 6-[4-(dimethylamino)phenyl]-N4*- {4-[(2-methylpyridin-4-yl)oxy]phenyl}pyrimidine-2,4-diamine] | ≤ 0.5 µM
25 | Cc1cc(Oc2ccc(Nc3cc(-c4cccc(N)c4)nc(N)n3)cc2)ccn1 [Example 320, 6-(3-aminophenyl)-N4*-{4-[(2-methylpyridin-4-yl)oxy]phenyl} pyrimidine-2,4-diamine] | ≤ 0.5 µM
26 | Cc1cc(Oc2ccc(Nc3cc(-c4ccoc4)nc(N)n3)cc2)ccn1 [Example 321, 6-(3-furyl)-N4*-{4-[(2-methylpyridin-4-yl)oxy]phenyl} pyrimidine-2,4-diamine] | ≤ 0.5 µM
27 | Cc1cc(Oc2ccc(Nc3cc(-c4ccc(C)c(N)c4)nc(N)n3)cc2)ccn1 [Example 323, 6-(3-amino-4-methylphenyl)-N4*-{4-[(2-methylpyridin-4-yl)oxy]phenyl} pyrimidine-2,4-diamine] | ≤ 0.5 µM
28 | Nc1nc(Nc2ccc(Oc3ccnc(Cl)c3)cc2)cc(-c2ccc(OS(N)(=O)=O)cc2)n1 [Example 332, 4-[2-amino-6-({4-[(2-chloropyridin-4-yl)oxy]phenyl}amino)pyrimidin-4-yl]phenyl sulfamate] | ≤ 0.5 µM
